Columns and labels:
LSK Flk2− cells [1] = experiment: Transplantation of ex vivo expanded MNCs without competitor/radioprotective cells, with serial (secondary) transplantation; format: in vivo, mouse
Experimental: For this experiment, MNCs with a known quantity of putative HSCs were cultured with and without CHIR99021 for 14 days. After 14 days, the cellular product of these cultures was transplanted into lethally-irradiated recipients at a dosage corresponding to an original input into culture of MNCs containing 5 LSKF^− cells per mouse. Freshly isolated MNCs containing either 5 or 500 LSKF− cells were also transplanted into 2 additional lethally irradiated groups of mice. No rescue/competitor bone marrow cells were included.
At 16 weeks post-transplant, mice transplanted with MNCs containing 5 or 500 LSKF^− cells freshly isolated or cultured for 14 days described in FIGS. 6A-6D were sacrificed and bone marrow isolated. A secondary transplantation was performed on new groups of lethally irradiated mice by transplanting 1×10^6 bone marrow cells from the original transplant group per mouse. At 4 weeks post-transplant, peripheral blood was collected from each transplant recipient and donor-derived repopulation was determined.

LSK Flk2− cells [2] = experiment: Competitive repopulation after 14 days ex vivo expansion of sorted HSCs or unsorted MNCs with or without CHIR99021; format: in vivo, mouse; conditions: long-term engraftment, competitor cells present
Experimental: For the experimental results shown in FIG. 13A, sorted LSK Flk2^− cells and unsorted MNCs containing a known quantity of LSK Flk2^− cells (CD45.2^+) were cultured for 14 days in ST media with and without CHIR99021. The cultured product of 100 sorted or 5 unsorted LSK Flk2^− cells per mouse were transplanted into lethally irradiated recipients (CD45.1^+). 5 freshly isolated, unsorted LSK Flk2^− cells per mouse were transplanted into a separate group. 1×10^5 freshly isolated CD45.1^+ competitor/radioprotective cells were also added per mouse. Peripheral blood analysis of recipients at 16 weeks post-transplant depicts % chimerism.
For the experiments set forth in this Example, a particular HSC expansion media was used. […]
Bone marrow cells were harvested from C57Bl/6 (CD45.2) mice and made into a single cell suspension by gently drawing through a 22 g needle several times. […] Cells were counted and a fraction of mononuclear cells (MNCs) were stained for lineage markers using CD3, CD4, CD8, B220, IgM, Mac-1, Gr1, and Ter119 antibodies along with Kit, Sca-1, and Flk2 for mouse HSC analysis or CD34 and CD38 for human HSC analysis. […] Frequency of putative HSCs (lineage negative, Sca-1^+, Kit^+, […] for mouse or CD34^+, CD38^− cells for human) was determined by analyzing >3×10^5 cells per sample independently in triplicate. […]

LSK Flk2− cells [3] = experiment: Ex vivo culture of sorted LSK Flk2− cells with PTEN and/or GSK-3β inhibitors; format: cell-based, mouse; conditions: for Expansion of LSK cells compared to control (photographs): 17 and 23 days culture, 1 μM CHIR99021, 200 nM BpV(pic); for Expansion of LSK Flk2− cells compared to media without either inhibitor: 28 days culture, inhibitor added individually
Experimental: LSK or LSK Flk2^− cells were sorted into 96-well U-bottom tissue culture plates at 100 cells/well with 200 μl media/well. Cells were incubated at 37° C., 5% O2, 5% CO2 (balance N2) for the indicated number of days. One-half total volume of media (see Table 1, below for the base media) was carefully pipetted from the top and replaced with fresh media every other day.
One hundred LSK Flk2^− cells were sorted from wild-type (C57Bl/6) mice and cultured in (1) media, (2) media+1 μM CHIR99021 (a GSK-3β inhibitor, a gift from Dr. Sheng Ding), (3) media+200 nM Dipotassium Bis-peroxo(picolinato)oxovanadate (BpV(pic), a PTEN inhibitor, available from Calbiochem, Cat. No. 203705), (4) media+1 μM CHIR99021+200 nM BpV(pic), (5) media+200 nM Shikonin (also a PTEN inhibitor, available from Calbiochem, Cat. No. 565850), and (6) media+200 nM Shikonin+1 μM CHIR99021. […] Cells were cultured as described above. […] Cells were examined at 17 days of culture (FIG. 3B, original magnification 100×) and 23 days (FIG. 3C, original magnification 40×).
LSK Flk2^− cells at 28 days culture in the indicated media conditions were examined (FIG. 3D, original magnification 200×).
FACS analysis of 28 day LSK Flk2^− cells cultured in media+BpV(pic)+CHIR99021 (FIG. 3E) was performed. Cells were pre-gated on live, lineage negative cells.
Fold expansion of LSK Flk2^− cells after 28 days culture in (1) media, (2) media+BpV(pic), (3) media+CHIR99021, and (4) media+CHIR99021+BpV(pic) were analyzed.
Cells cultured for 9 days in (1) media, (2) media+BpV(pic) (200 nM), (3) media+CHIR99021 (100 nM), and (4) media+CHIR99021 (100 nM)+BpV(pic) (200 nM) were re-sorted for LSK Flk2^− cells, and fold expansion of LSK Flk2^− cells after 9 days culture in the indicated conditions was determined (FIG. 3I).
FACS analysis was performed on 9 day LSK Flk2^− cells cultured in media+BpV(pic) (200 nM)+CHIR99021 (100 nM) (FIG. 3J). Cells were pre-gated on live, lineage negative cells.

LSK Flk2− cells [4] = experiment: Transplantation of cultured sorted LSK Flk2− cells into lethally irradiated CD45.1+ recipient mice with competitor cells; format: in vivo, mouse; conditions: 1000 re-sorted LSK Flk2− cells from 28 day cultures; peripheral blood at 4 weeks post-transplant
Text: Cells were harvested from the wells prior to transplantation by pipetting up and down several times before transferring to a fresh tube. Residual was then collected by adding more media and repeating. Cells were washed in DMEM (Invitrogen, Cat. No. 31053) without phenol red and added to the appropriate number of whole bone marrow rescue cells from a congenic donor (for 200,000 rescue cells+1,000 re-sorted LSK Flk2^− cells (FIGS. 3F-3H) or the non-adherent product of 10 days culture of 100 LSK Flk2^− cultured cells (FIGS. 3I-3K) per mouse as indicated). […]
Repopulation was measured at 4 weeks post-transplant by collection of periperal blood, red blood cell lysis, and staining of CD45.1 (recipient) compared to CD45.2 (donor) engraftment using antibodies purchased from eBiosciences (FITC conjugated CD45.2 (Cat. No. 11-0454-85) and PE-Cy5 conjugated CD45.1 (Cat. No. 15-0453-82)). […] Multi-lineage reconstitution was determined by CD3, B220 (for lymphoid) and Gr1, Mac-1 (for myeloid), as described above.
Cells cultured for 28 days in (1) media, (2) media+BpV(pic), (3) media+CHIR99021 and (4) media+CHIR99021 (1 μM)+BpV(pic) (200 nM) were re-sorted for LSK Flk2^− cells. […] At 4 weeks post-transplant, peripheral blood was analyzed for donor (FIG. 3G) and multi-lineage (FIG. 3H) engraftment. […]

LSK Flk2− cells [5] = experiment: Bone marrow MNC culture in HSC expansion media with CHIR99021 and PI3K inhibitor, FACS for LSK Flk2− expansion (FIG. 21); format: cell-based, mouse; conditions: for Expansion of LSK Flk2− cells: bone marrow MNCs cultured 10 days in ST media, 250 nM CHIR99021 or indicated concentrations of NVP-BEZ235
Experimental: Bone marrow MNCs were cultured for 10 days in an HSC expansion media with and without 250 nM CHIR99021, along with the indicated concentrations of PI3K inhibitor ([…]. et al. Identification and characterization of NVP-BEZ235, a new orally available dual phosphatidylinositol 3-kinase/mammalian target of rapamycin inhibitor with potent in vivo antitumor activity. (Molecular cancer therapeutics 7, 1851-1863 (2008)), and then subjected to FACS analysis to determine expansion of LSK Flk2^- cells. The inventors have developed a defined culture system utilizing only two cytokines, stem cell factor (SCF) and thrombopoietin (Tpo) (ST media), which have been shown previously to support HSC expansion in vitro (Zhang, […]. Murine hematopoietic stem cells change their surface phenotype during ex vivo expansion. Blood 105, 4314-4320 (2005)). […] Also, the ability of CHIR99021 to enhance expansion was negated by PI3K inhibition (FIG. 21).

| Compound | Donor reconstitution (LSK Flk2− cells [1]; 16 weeks post-secondary transplant, MNCs containing 5 LSK Flk2− cells expanded 14 days in ST media with CHIR99021, no competitor cells) [%] | Long-term repopulation equivalent to a greater dose of fresh, unexpanded cells (LSK Flk2− cells [1]; 16 weeks post-secondary transplantation, expanded MNCs with 5 putative HSCs vs fresh MNCs with 500) [fold] | Average repopulation (LSK Flk2− cells [2]; 100 sorted putative HSCs cultured 14 days with CHIR99021 (250 nM)) [%] | Average repopulation (LSK Flk2− cells [2]; unsorted MNC cultures, 14 days with CHIR99021 (250 nM)) [%] | Expansion of LSK cells compared to control (photographs) (LSK Flk2− cells [3]) | Expansion of LSK Flk2− cells compared to media without either inhibitor (LSK Flk2− cells [3]) | Mice showing >1% engraftment (LSK Flk2− cells [4]) | Expansion of LSK Flk2− cells (LSK Flk2− cells [5]) | Ability of CHIR99021 to enhance expansion of LSK Flk2− cells (LSK Flk2− cells [5]; PI3K inhibitor added together with 250 nM CHIR99021, 10 days) |
| --- | --- | --- | --- | --- | --- | --- | --- | --- | --- |
| Cc1c[nH]c(-c2cnc(NCCNc3ccc(C#N)cn3)nc2-c2ccc(Cl)cc2Cl)n1 [CHIR99021] | 90.6±4.8 | 100 | 12.3 | 64.8 | greater expansion | significant expansion | 4/8 | increased the expansion | – |
| Cn1c(=O)n(-c2ccc(C(C)(C)C#N)cc2)c2c3cc(-c4cnc5ccccc5c4)ccc3ncc21 [NVP-BEZ235] | – | – | – | – | – | – | – | decreased the ability of LSK Flk2^− cells to expand in a dose-dependent manner | negated |
| Dipotassium Bis-peroxo(picolinato)oxovanadate [BpV(pic)] | – | – | – | – | greater expansion | significant expansion | 0/10 | – | – |

— patent US10787643B2, “Methods, kits, and compositions for stem cell self-renewal” (Stowers Institute for Medical Research, priority 2007, dated 2020)
